# Patent publication US10852302B2, “Method for evaluation of function of phagocyte” (MOCHIDA PHARMACEUTICAL CO., LTD., priority 2008, dated 2020)
# Legend:
# Assay type in all cases: cell-based
# [1] = system: granulocyte from rabbit peritoneal cavity; assay: Action of phagocytosis inhibitors on sCD14-ST production by rabbit granulocyte stimulated with E. coli; conditions: inhibitor preincubated 37° C. 30 minutes, then 20 times by cell count of E. coli, 2 hours (FIG. 6)
# Procedure: (§1) Two step sandwich ELISA system was constructed by using the F1301-9-1 antibody produced in Example 1-(4) for the solid phase antibody, and the F1258-7-2 Fab′-HRP antibody prepared in Example 3-(1) for the labeling antibody. More specifically, the F1301-9-1 antibody was diluted with D-PBS (pH 7.4) to 10 μg/mL, and added to the wells of immunoplate (Maxisorb, Nunc) at 50 μL/well. After allowing the reaction to proceed overnight at 4° C., the well was washed 5 times with ion exchanged water. D-PBS (pH 7.4) containing 5% StabilGuard (SurModics) and 0.1% Tween 20 was added to the wells at 200 μL/well for blocking. Next, the specimen was diluted by using 150 mM phosphate buffer (pH 6.0) containing 5% normal rabbit serum (serum from which soluble CD14 antigen has been removed by using the rabbit CD14 affinity antibody column), 1% BSA, and 0.1% Tween 20 for dilution, and the diluted specimen was added to the well at 50 μL/well and allowed to react at 25° C. for 3 hours. After completion of the reaction, the well was washed 5 times with physiological saline containing 0.05% Tween 20. The F1258-7-2 Fab′-HRP was diluted with 75 mM phosphate buffer (pH 6.4) containing 4% rat serum and 0.05% Tween 20, and added to the well at 50 μL/well. […] The reaction was ceased with 0.5M sulfuric acid solution, and absorbance at 450 nm was measured by using a plate spectrophotometer (NJ-2100, Intermed Japan). […]
# [2] = system: human peripheral blood granulocyte; assay: Action of phagocytosis inhibitors on sCD14-ST production by human granulocyte stimulated with E. coli; conditions: inhibitor preincubated 37° C. 1 hour, then 30 times by cell count of E. coli, 2 hours (FIG. 9)
# Procedure: Granulocyte fraction was prepared from peripheral blood collected from a healthy human donor by density-gradient centrifugation using two layers each having a specific gravity of d=1.077 and d=1.119.
# Various leukocyte stimulants were added to the granulocyte to evaluate the amount of sCD14-ST produced. More specifically, human peripheral blood granulocyte collected in Example 7-(1) was suspended in RPMI1640 culture containing 10% healthy human serum, 2 mM Glutamin, 10 mM HEPES, and 10 ng/ml G-CSF (SIGMA R8758) to a cell concentration of 0.5×10^7 cells/mL, and added to the wells of a 96 well culture plate (Nunclon Surface, Nunc) at 100 μL/well. The granulocyte was incubated overnight at 37° C. in the presence of 5% carbon dioxide. Next, various stimulants were adjusted to 1.5 fold concentration with HBSS buffer containing 10% healthy human serum, 2 mM Glutamin, and 10 mM HEPES, and added to the well at 200 μL/well. After incubating at 37° C. for 2 hours, the supernatant was collected by centrifugation, and human sCD14-ST was measured by using the assay kit described in Example 7-(3) of WO 2005/108429. More specifically, the sandwich assay kit used was the one containing the antibody which binds to the peptide consisting the amino acid sequence of 53rd to 68th amino acid residue of the human CD14 (S68 antibody), which specifically recognizes the human sCD14-ST. […]
# [3] = system: granulocyte from the rabbit peritoneal cavity; assay: sCD14-ST production by rabbit peritoneal granulocyte stimulated with leukocyte stimulants; conditions: rabbit granulocyte 1×10^7 cells/mL, stimulant, 37° C. for 2 hours, supernatant, sandwich ELISA (FIG. 4)
# Procedure: as §1, with “hours.” for “hours. After completion of the reaction, the well was washed 5 times with physiological saline containing 0.05% Tween 20. The F1258-7-2 Fab′-HRP was diluted with 75 mM phosphate buffer (pH 6.4) containing 4% rat serum and 0.05% Tween 20, and added to the well at 50 μL/well.”
# Various leukocyte stimulants were added to the granulocyte to evaluate the amount of sCD14-ST produced. […] After incubating at 37° C. for 2 hours, the supernatant was collected by centrifugation and sCD14-ST was measured by the assay system of Example 3-(2).
# [4] = system: granulocyte from the rabbit peritoneal cavity; assay: High molecular weight sCD14 production by rabbit granulocyte stimulated with leukocyte stimulants; conditions: stimulant, kit for high molecular weight sCD14 (R&D) (FIG. 5)
SMILES,Production of the rabbit sCD14-ST (effect of inhibitor) [1],sCD14-ST production (effect of inhibitor) [2],sCD14-ST production [3],production of the high molecular weight sCD14 [4]
C=C1[C@@H](C)[C@H]2[C@H](Cc3ccccc3)NC(=O)[C@]23[C@H](OC(C)=O)/C=C/[C@@](C)(O)C(=O)[C@@H](C)C/C=C/[C@H]3[C@@H]1O [Cytochalasin D],inhibited,inhibited the sCD14-ST production,–,–
"CCCCCCCCCCCCCC(=O)O[C@@H]1[C@@H](C)[C@@]2(O)[C@@H](C=C(CO)C[C@]3(O)C(=O)C(C)=C[C@@H]23)[C@@H]2C(C)(C)[C@]12OC(C)=O [PMA, phorbol myristate acetate]",–,–,increase in the sCD14-ST was not recognized,increase in the production of the high molecular weight sCD14 was recognized
COC[C@H]1OC(=O)c2coc3c2[C@@]1(C)C1=C(C3=O)[C@@H]2CCC(=O)[C@@]2(C)C[C@H]1OC(C)=O [Wortomanin],inhibited,inhibited the sCD14-ST production,–,–
"CSCC[C@H](NC=O)C(=O)N[C@@H](CC(C)C)C(=O)N[C@@H](Cc1ccccc1)C(=O)O [fMLP, formyl methionyl leucyl phenylalanine]",–,–,increase in the sCD14-ST was not recognized,–
